Experimental data: patent US6916660B2, “Fluorescent sensor compounds for detecting saccharides” (North Carolina State University, priority 2002, dated 2005)
Read-outs that look alike come from different tables or passages of the source.

Key:
[1] = Fluorescence titration of sensor compounds with fructose; format: binding; conditions: 50% MeOH/0.1 M phosphate buffer pH 7.4, sensor 1×10^−6 M, 25° C.
Description: (§1) The affinity and selectivity of the fluorescent sensor compounds (7) for glucose were evaluated. Specifically, 2 mL of a solution of each sensor compound (7) in methanol (2×10^−6 M) was mixed with 2 mL of aqueous saccharide phosphate buffer solution (pH 7.4) at various concentrations, and the fluorescence intensity recorded. […] This represents a 43- and 49-fold selectivity over fructose and galactose, respectively. In addition, fluorescence enhancement was very large (about 7-fold).

[2] = Fluorescence titration of sensor compounds with glucose; format: binding
Description: as §1

HEP3B cells = test: Fluorescent labeling of fixed HEP3B cells expressing Lewis Y (microscopy, densitometry); format: cell-based; conditions: 1 μM compound
Description: (§2) Cell culture. HEPG2 and COS7 cells were maintained in RPMI media (G. E. Moore et al. (1967) J. Am. Med. Assoc. 199, 519-524) with 10% FBS (GIBCO). HEP3B cells were maintained in RPMI with 10% FBS and 1× sodium pyruvate and 1× non-essential amino acids (GIBCO).
(§3) Fluorescent labeling studies. 6-well plates were seeded with 1×10^6 cells per well and incubated at 37° C. and 5% CO2 for 48 h. The media was removed and cells were washed twice with 1×PBS. The cells were fixed with 1.5 mL of 1:1 methanol/PBS and incubated 20 minutes at 4° C. After incubation, the methanol/PBS solution was removed and cells were washed twice with PBS.
(§4) Diboronic acid compounds 7 were resuspended in 1:1 methanol/PBS and added to wells at 0.5 to 10 μM concentrations. One well was incubated only in methanol/PBS without compound as a negative control. The plates were then incubated in darkness at 4° C. for 45 min. Plates were examined with phase contrast microscopy followed by fluorescent microscopy (blue cube wavelengths 370 nm excitation, 426 nm emission; 20× lens). Plates were photographed using a Nikon DXM1200 digital camera and images captured with the Nikon ACT-1 program (v 2.10). The phase contrast and fluorescent images were then overlaid, organized and labeled using Adobe Photoshop 6.0. The images were quantified with NIH ImageJ 1.28. The units (mean gray value) were subtracted from background, where there are no cells. The fluorescent signal was stable for at least 96 h when cells were maintained in darkness.
(§5) HEPG2, a cell line that selectively expresses sLex on the surface, was selected for examination. To examine the selectivity of the sensor for cell surface sLex, HEP3B and COS7 cells were labeled in parallel. COS7 expresses none of the fucosylated antigens associated with carcinoma progression and HEP3B expresses only the Lewis Y antigen. See B. W. Weston et al. (1992) J. Biol. Chem. 267, 4152-4160; B. W. Weston et al. (1992) J. Biol. Chem. 267, 24575-24584.
(§6) HEPG2 and control cell lines were incubated with compound 7q, while three other diboronic acids (7b, 7d, 7y) were used as controls. […]

HEPG2 cells = test: Fluorescent labeling of fixed HEPG2 cells expressing sLex (microscopy, densitometry); format: cell-based; conditions: 1 μM compound
Description: as §2, §3, §4, §5, §6

[3] = Fluorescence titration of sensor compounds with galactose; format: binding; conditions: 50% MeOH/0.1 M phosphate buffer pH 7.4, sensor 1×10^−6 M, 25° C.
Description: as §1

[4] = Solution binding studies with Lewis Y (data not shown)
[5] = Binding of fluorescent compounds 7 to sLex in solution (fluorescence intensity change); conditions: solution binding studies
Description: Diboronic acid compounds 7 were designed to show significant fluorescence intensity changes upon binding with a complementary carbohydrate. In screening for their binding with the target carbohydrate, sLex, the fluorescence intensity changes of solutions of the compounds upon addition of the carbohydrate were determined. These experiments were conducted in a mixture of methanol and 0.1 M phosphate buffer (pH 7.4) (1:1, v/v). Methanol was used to improve the solubility of the sensor compounds. The concentration of fluorescent sensor compound (7) (specific structures provided in FIG. 1, above) was fixed at 1×10^−5 or 1×10^−6 M, and the concentration of sLex was set at 60 μM.

[6] = Springsteen et al.; cited from earlier work
[7] = Springsteen et al.; cited from earlier work; remark: listed apart in the source

## CN(Cc1ccccc1B(O)O)Cc1c2ccccc2c(CN(C)C(=O)Cc2ccccc2CC(=O)N(C)Cc2c3ccccc3c(CN(C)Cc3ccccc3B(O)O)c3ccccc23)c2ccccc12 [Compound 7b]
[1]
  Ka for fructose: 34 M⁻¹
[2]; 50% MeOH/0.1 M phosphate buffer pH 7.4, sensor 1×10^−6 M, 25° C.
  Ka for glucose: 1472 M⁻¹
[2]; FIG. 8
  glucose concentration region of most sensitive fluorescence intensity changes: mM region
[2]; ratio of Ka
  selectivity for glucose over fructose: 43 fold
  selectivity for glucose over galactose: 49 fold
[2]; versus phenylboronic acid
  improvement in affinity for glucose compared with PBA: about 300 fold
  improvement in selectivity for glucose over fructose compared with PBA: about 1400 fold
HEP3B cells
  labeling of HEP3B cells (mean gray value): avidly bound Lewis Y-expressing HEP3B cells
HEPG2 cells
  labeling of HEPG2 cells (mean gray value): did not recognize sLex on HEPG2 cells
[3]
  Ka for galactose: 30 M⁻¹

## CN(Cc1ccccc1B(O)O)Cc1c2ccccc2c(CN(C)C(=O)CCc2ccc(CCC(=O)N(C)Cc3c4ccccc4c(CN(C)Cc4ccccc4B(O)O)c4ccccc34)cc2)c2ccccc12 [Compound 7d]
[4]
  affinity for Lewis Y in solution: low affinity
HEP3B cells
  labeling of HEP3B cells (mean gray value): did not label HEPG2 or HEP3B
[5]
  affinity for sLex in solution: low affinity
HEPG2 cells
  labeling of HEPG2 cells (mean gray value): did not label HEPG2 or HEP3B

## CN(Cc1ccccc1B(O)O)Cc1c2ccccc2c(CN(C)C(=O)CCCCC(=O)N(C)Cc2c3ccccc3c(CN(C)Cc3ccccc3B(O)O)c3ccccc23)c2ccccc12 [Compound 7y]
HEP3B cells
  labeling of HEP3B cells (mean gray value): recognized surface sLex and Lewis Y with equal avidity
HEPG2 cells
  labeling of HEPG2 cells (mean gray value): recognized surface sLex and Lewis Y with equal avidity

## OB(O)c1ccccc1 [PBA, phenylboronic acid]
[6]
  Ka for glucose: 5 M⁻¹
[7]
  Ka for fructose: 162 M⁻¹
